# Source: patent US20080051413A1, “Nitrophenylpiperazine derivative of xanthine which relaxes tracheal airway and increases respiratory performance” (KAOHSIUNG MEDICAL UNIVERSITY, priority 2006, published 2008)
# Legend:
# [1] = molecular target: T1, PDE5 purified from human platelets (Homo sapiens, UniProt O76074); test: Phosphodiesterase activity, PDE5; format: biochemical; conditions: 10 _M compound, n = 3
# T1 construct: PDE3 and PDE5 purified from human platelets; from tissue; host or cells: human platelets
# Procedure: The reaction was terminated by boiling for 2 min, and the resulting GMP was converted to adenosine by the addition of 10 mg/ml snake venom nucleotidase, which was followed by a further incubation at 37_ for 10 min. Unhydrolyzed cGMP was bound to AG1-X2 resin, and the remaining [^3H]guanosine in the aqueous phase was quantitated by scintillation counting.
# [2] = tested on: cultured guinea pig tracheal smooth muscle cells; test: Expression of PKA and PKG (Western blot); format: cell-based
# Procedure: Cell Culture of Tracheal Smooth Muscle: Guinea pigs (350-450 g) were injected i.p. with a lethal dose of pentobarbital. The tracheas were excised and cut longitudinally through the cartilage. Using a dissecting microscope, TSM strips were dissected from the surrounding parentchyma. The epithelium was removed from the luminal surface, and bands of TSM were gently separated from the underlying connective tissue. Then TSM strips were chopped into small sections (1 mm^3) and incubated in Hanks' balanced salt solution (138 mM NaCl, 4 mM NaHCO3, 5 mM KCl, 0.3 mM KH2PO4, 0.3 mM Na2HPO4, and 1.0 mM glucose) with 0.05% elastase type IV and 0.2% collagenase type IV (Invitrogen, Carlsbad, Calif.) for 30 min at 37_ with gentle shaking. The solution of dissociated smooth muscle cells was centrifuged (6 min at 500 g), and the pellet was resuspended in 1:1 Dulbecco's modified Eagle's medium/Ham's F-12 medium supplemented with 10% fetal bovine serum, 0.244% NaHCO3, and 1% penicillin/streptomycin. Cells were cultured in 25-cm^2 flasks at 37_ in humidified air containing 5% CO2. Confluent cells were detached with 0.25% trypsin-0.02% EDTA at 37_and then subcultured to establish secondary cultures. Cultures were maintained for no more than four passages. They were identified as smooth muscle cells by the typical hill-and-valley appearance, and cellular homogeneity was further confirmed by the presence of smooth muscle specific _-myosin and _-actin immunoreactivity. Indirect immunofluorescence staining for a variety of antigens was carried out by first plating the cells on chamber slides, fixing the cells in 3.7% formaldehyde-phosphate-buffered saline for 10 min, and permeabilizing the cells with phosphate-buffered saline and 0.1% Triton X-100. Cells were then stained with either a mouse monoclonal antibody directed against the amino-terminal 10 amino acids of _-smooth muscle actin or _-myosin (Roche Diagnostics, Indianapolis, Ind.). All cells were stained with fluorescein-labeled goat anti-mouse IgG antibody (Roche Diagnostics).
# Expression of PKA and PKG: The expression of PKA and PKG was determined by Western blot as previously described by Wu et al. and Murthy et al. (Wu B N, Lin R J, Lo Y C, Shen K P, Wang C C, Lin Y T, and Chen I J (2004) KMUP-1, a xanthine derivatives, induces relaxation of guinea-pig isolated trachea: the role of the epithelium, cyclic nucleotides and K^+ channels. Br J Pharmacol 142:1105-1114; Murthy K S, Zhou H, and Makhlouf G M (2002) PKA-dependent activation of PDE3A and PDE4 and inhibition of adenylyl cyclase V/VI in smooth muscle. Am J Physiol 282:C508-C517). Guinea pig TSMCs were incubated with KMUP-3 for 30 min. Each of the cell lysates, each containing 1 _g of cellular protein, was electrophoresed in 7.5% SDS-polyacrylamide gel electrophoresis and then transferred to polyvinylidene diflouride membrane (Millipore Corporation, Billerica, Mass.). The membrane was stained with Ponceau S to verify the integrity of the transferred proteins and to monitor the unbiased transfer of all protein samples. The membrane was then washed with 25 ml of TBS (100 mM NaCl, 0.1% and 10 mM Tris-HCl, pH 7.5) for 5 min at room temperature and incubated in 25 ml of blocking buffer (TBS plus 0.1% Tween 20 and 5% nonfat milk) overnight at 4_. In the measurement of protein, the membrane was incubated with appropriate PKARI or PKA1—1— primary antibody (diluted 1:250) in 2 ml of blocking buffer for 1 h at room temperature, washed three times for 5 min each with 15 ml of Tris-buffered saline/Tween 20 (TBS plus 0.1% Tween 20), incubated with horseradish peroxidase-conjugated secondary antibody (1:10,000) in 15 ml of blocking buffer with gentle agitation for 1 h at room temperature, and finally washed three times for 5 min each time with 15 ml of Tris-buffered saline/Tween 20. The membrane was then subjected to enhanced chemiluminescence (GE Healthcare) for the detection of the specific antigen.
smiles,measurement,setting,value
Cn1c(=O)c2c(ncn2CCN2CCN(c3ccc([N+](=O)[O-])cc3)CC2)n(C)c1=O [KMUP-3],PDE5 Inhibition,[1],48 ± 1.9 %
same,expression of PKA1—1— (FIG. 7(B)),"[2]; 1 _M, 30 min",increased the expression of PKA1—1—
same,expression of immunoreactive PKARI protein (FIG. 7(A)),"[2]; 1 _M, 30 min",increased the expression of PKARI
same,PKG protein after ODQ pretreatment,[2]; ODQ (10_M) 30 min prior to compound (1 _M),significantly reduced
same,PKA protein expression after ODQ pretreatment,"[2]; ODQ (10 _M) 30 min prior to compound, unpublished data",did not significantly affect
same,expression of PKARI after SQ 22536 pretreatment,[2]; SQ 22536 (100 _M) 30 min prior to compound (1 _M),attenuated
